Values quoted from earlier work, collected in patent publication US20010007758A1, “Treatment of multiple sclerosis using COP-1 and Th2-enhancing cytokines” (Autoimmune, Inc., priority 1998, published 2001).

B1: MBP: myelin basic protein, a component of myelin in the central nervous system (protein, UniProt P02686 1-304, looked up)
Myelin basic protein: MGNHAGKRELNAEKASTNSETNRGESEKKRNLGELSRTTSEDNEVFGEADANQNNGTSSQDTAVTDSKRTADPKNAWQDAHPADPGSRPHLIRLFSRDAPGREDNTFKDRPSESDELQTIQEDSAATSESLDVMASQKRPSQRHGSKYLATASTMDHARHGFLPRHRDTGILDSIGRFFGGDRGAPKRGSGKDSHHPARTAHYGSLPQKSHGRTQDENPVVHFFKNIVTPRTPPPSQGKGRGLSLSRFSWGAEGQRPGFGYGGRASDYKSAHKGFKGVDAQGTLSKIFKLGGRDSRSGSPMARR
B2: IL-4: interleukin-4, a Th2-enhancing cytokine (protein, UniProt P05112 25-153, looked up)
Interleukin-4: HKCDITLQEIIKTLNSLTEQKTLCTELTVTDIFAASKNTTEKETFCRAATVLRQFYSHHEKDTRCLGATAQQFHRHKQLIRFLKRLDRNLWGLAGLNSCPVKEANQSTLENFLERLKTIMREKYSKCSS

Legend:
T cell = settings: oral administration to rats
[1] = system: T suppressor cells specific for MBP
MS = settings: daily subcutaneous injections of 20 mg
EAE [2] = settings: oral administration to rats
MBP-specific T cells = settings: experiments in mice
[3] = system: experimental allergic encephalitis (EAE); settings: in vivo
EAE [4] = settings: oral feeding; EAE induced with 0.4 mg mouse MBP; monitored 35 days

| Molecule | T cell proliferative responses (T cell) | TH1 cytokine production (T cell) | induction of T suppressor cells specific for MBP [1] | Expanded Disability Status Scale (MS) | annualized relapse rate, lower in treated patients (MS) | proportion of patients that did not have a relapse in clinical disease (MS) | severity and incidence of EAE (EAE [2]) | effect on MBP-specific T cells involved in destruction of central nervous system tissue in EAE (MBP-specific T cells) | encephalitogenicity (causes EAE when injected) [3] | delay in disease onset (EAE [4]) |
| --- | --- | --- | --- | --- | --- | --- | --- | --- | --- | --- |
| glatiramer acetate [COP-1] | inhibited | inhibited | induce T suppressor cells | significant improvement | 29% | 34% | suppressed | specifically inhibits | not encephalitogenic |  |
| B1 |  |  |  |  |  |  |  |  | highly encephalitogenic | 22 days |
| B2 |  |  |  |  |  |  |  |  |  | 21 days |
